Results on two molecules are retold here after PMC10967832, “Cloflucarban Illuminates Specificity and Context-Dependent Activation of the PINK1–Parkin Pathway by Mitochondrial Complex Inhibition” (Biomolecules, 2024).

The assay deals with T1, mitochondrial complex I (Bos taurus, UniProt P03887+P17694+P25708+P42026).
T1 construct: gene MT-ND1; native complex immunocaptured from solubilized bovine heart mitochondria
The experiment in a line: NADH oxidation, […] nm, immunocaptured complex. It counts as biochemical. The note with it: ubiquinone 1, phospholipids, room temperature.

For `Cc1nc(-c2ccc(-c3ccc(C(=O)N4CCc5cc6c(cc54)C4(CCN(C)CC4)CO6)cc3)c(C)c2)no1` [SB-224289], the “% activity relative to vehicle at 50 μM” value stood at 60%.
On to `CO/C(=C/C(N)=O)[C@H](C)[C@H](/C=C/c1csc(-c2csc([C@@H](C)/C=C/C=C/C(C)C)n2)n1)OC` [myxothiazole], for which the “% activity relative to vehicle at 50 μM” value is 48%.
